Tests used:
[1] = target: T1, p38α (Homo sapiens, UniProt Q16539); test: p38 MAP Kinase assay: inhibition of ATF2 phosphorylation, ELISA; assay type: biochemical; conditions: for IC50: ATF2 phosphorylation, read-out: [ENZ] P38 ALPHA, IC50, ELISA
T1 construct: p38 MAP Kinases are recombinant human full-length proteins with an amino-terminal GST fusion; GST (N); purchased Upstate Biotechnology Inc; host or cells: E. coli
Procedure, shortened: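 GST-tagged full-length human p38 MAP kinase with GST-ATF2 (aa 19–96; 1.25 μM) and 40 μM ATP in HEPES pH 7.5 buffer, without (Method I) or with (Method II) 1% human serum albumin. Compound pre-incubated 15 min at room temperature; reaction 30 min at 37 °C; ATF2 Thr69 phosphorylation measured by ELISA (A450).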

[2] = test system: TNFα release from THP-1 cells; test: Inhibition of TNFα release from LPS-stimulated THP-1 cells, ELISA; assay type: cell-based; conditions: Homo sapiens, THP-1, THP-1 cells, read-out: [CELL] THP-1, IC50, TNF ALPHA, ELISA
Procedure, shortened: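 Human THP-1 monocytes, 10^6 cells/ml in RPMI with 10% FBS, no serum or 1% HSA, preincubated 30 min at 37 °C with compound (≤0.5% DMSO), then stimulated with 10 μg/ml LPS for 18 h. Supernatant TNFα measured by ELISA; IC50 from non-linear dose-response regression.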

T1 sequence (Q16539 whole entry, the tested form may be a part): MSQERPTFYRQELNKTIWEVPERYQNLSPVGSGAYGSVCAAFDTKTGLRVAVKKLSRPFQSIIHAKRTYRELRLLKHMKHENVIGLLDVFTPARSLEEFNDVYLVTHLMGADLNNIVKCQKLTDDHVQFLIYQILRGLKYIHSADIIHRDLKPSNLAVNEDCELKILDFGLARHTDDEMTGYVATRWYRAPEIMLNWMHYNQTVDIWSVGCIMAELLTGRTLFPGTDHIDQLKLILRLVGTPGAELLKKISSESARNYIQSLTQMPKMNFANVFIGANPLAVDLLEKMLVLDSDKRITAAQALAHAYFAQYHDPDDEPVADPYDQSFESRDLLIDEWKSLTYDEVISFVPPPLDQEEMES

Row | SMILES | IC50 [1] [nM] | IC50 [2] [nM] | melting point [°C] | inhibition at 10 µM ([1]; 10 uM, substrate ATF2, read-out: [ENZ] P38 ALPHA, PCT INH, ELISA (10 uM;ATF2) (Percent)) [%]
1 | CN(CC1OCCO1)c1nccc(Oc2ccc(NC(=O)c3cc(F)cc(N4CCCCC4)c3)c3ccccc23)n1 [Compound B395, N-[4-({2-[(1,3-Dioxolan-2-ylmethyl)(methyl)amino]pyrimidin-4-yl}oxy)-1-naphthyl]-3-fluoro-5-piperidin-1-ylbenzamide] | 31.3 | 212 | 125 to 127 | 
2 | O=C(Nc1ccc(OCCN2CCOCC2)c2ccccc12)c1cccc(N2CCCCC2)c1 [Compound B48, N-[4-(2-Morpholin-4-yl-ethoxy)-naphthalen-1-yl]-3-piperidin-1-yl-benzamide] | 464 | 7650 | 147 to 148 | 
3 | CSc1nccc(-c2ccc(NC(=O)c3cc(F)cc(N4CCOCC4)c3)c3ccccc23)n1 [Compound B270, 3-Fluoro-N-[4-(2-methylsulfanyl-pyrimidin-4-yl)-naphthalen-1-yl]-5-morpholin-4-yl-benzamide] | 1650 | 6420 | 135 to 138 | 
4 | O=C(Nc1ccc(OCCCc2cccnc2)c2ccccc12)c1cc(F)cc(N2CCOCC2)c1 [Compound B222, 3-Fluoro-5-morpholin-4-yl-N-[4-(3-pyridin-3-ylpropoxy)-1-naphthyl]benzamide] | 820 | 9380 | 64 to 66 | 
5 | N#CNc1nccc(Oc2ccc(NC(=O)c3cc(F)cc(N4CCCCC4)c3)c3ccccc23)n1 [Compound B380, N-(4-{[2-(Cyanoamino)pyrimidin-4-yl]oxy}-1-naphthyl)-3-fluoro-5-piperidin-1-ylbenzamide] | 6.6 | > 1000 | 160 to 162 | 
6 | O=C(Nc1ccc(OCCN2CCOCC2)c2ccccc12)c1cc(F)cc(OC2CCCCC2)c1 [Compound B195, 3-(Cyclohexyloxy)-5-fluoro-N-[4-(2-morpholin-4-ylethoxy)-1-naphthyl]benzamide] | 413 | > 10000 | 116 to 118 | 
7 | CC1CCCN(c2cc(F)cc(C(=O)Nc3ccc(OCCN4CCOCC4)c4ccccc34)c2)C1 (stereo not shown) [Compound B202, 3-Fluoro-5-(3-methylpiperidin-1-yl)-N-[4-(2-morpholin-4-ylethoxy)-1-naphthyl]benzamide] | 291 | 9330 | 145 to 148 | 
8 | CC(C)N(C)c1nccc(Oc2ccc(NC(=O)c3cc(F)cc(N4CCOCC4)c3)c3ccccc23)n1 [Compound B322, 3-Fluoro-N-[4-({2-[isopropyl(methyl)amino]pyrimidin-4-yl}oxy)-1-naphthyl]-5-morpholin-4-ylbenzamide] | 44.6 | 607 | 94 to 96 | 
9 | O=C(Nc1ccc(Oc2ccnc(N3CCC4(CC3)OCCO4)n2)c2ccccc12)c1cc(F)cc(N2CCCCC2)c1 [Compound B378, N-(4-{[2-(1,4-Dioxa-8-azaspiro[4.5]dec-8-yl)pyrimidin-4-yl]oxy}-1-naphthyl)-3-fluoro-5-piperidin-1-ylbenzamide] | 17.1 | 225 | 195 to 196 | 
10 | CC(C)(C)Oc1cccc(C(=O)Nc2ccc(OCCN3CCOCC3)c3ccccc23)c1 [Compound B65, 3-tert-Butoxy-N-[4-(2-morpholin-4-yl-ethoxy)-naphthalen-1-yl]-benzamide] | 614 | 3420 | 50 to 51 | 
11 | O=C(Nc1ccc(Oc2ccnc(N3CCCC(O)C3)n2)c2ccccc12)c1cc(F)cc(N2CCCCC2)c1 (stereo not shown) [Compound B402, 3-Fluoro-N-(4-{[2-(3-hydroxypiperidin-1-yl)pyrimidin-4-yl]oxy}-1-naphthyl)-5-piperidin-1-ylbenzamide] | 14.6 | 655 | 93 to 95 | 
12 | CCn1c(COc2ccc(NC(=O)c3cc(F)cc(N4CCOCC4)c3)c3ccccc23)n[nH]c1=O [Compound B255, N-[4-(4-Ethyl-5-oxo-4,5-dihydro-1H-[1,2,4]triazol-3-ylmethoxy)-naphthalen-1-yl]-3-fluoro-5-morpholin-4-yl-benzamide] | 578 | 1940 | 260 | 
13 | O=C(Nc1ccc(Oc2ccnc(NCCN3CCCC3)n2)c2ccccc12)c1cc(F)cc(N2CCOCC2)c1 [Compound B338, 3-Fluoro-5-morpholin-4-yl-N-[4-({2-[(2-pyrrolidin-1-ylethyl)amino]pyrimidin-4-yl}oxy)-1-naphthyl]benzamide] | 17.1 | 60.9 | 95 to 97 | 
14 | O=C(Nc1ccc(OCCN2CCOCC2)c2ccccc12)c1ccc2snnc2c1 [Compound B50, N-[4-(2-Morpholin-4-ylethoxy)-1-naphthyl]-1,2,3-benzothiadiazole-5-carboxamide] | 1240 | 9180 | 188 to 190 | 
15 | CSc1nccc(Oc2ccc(NC(=O)c3cc(F)cc(OC4CCCC4)c3)c3ccccc23)n1 [Compound B304, 3-(Cyclopentyloxy)-5-fluoro-N-(4-{[2-(methylthio)pyrimidin-4-yl]oxy}-1-naphthyl)benzamide] | 225 | 239 | 115 to 116 | 
16 | CN1CCN(c2nccc(Oc3ccc(NC(=O)c4cc(F)cc(N5CCCCC5)c4)c4ccccc34)n2)CC1 [Compound B372, 3-Fluoro-N-(4-{[2-(4-methylpiperazin-1-yl)pyrimidin-4-yl]oxy}-1-naphthyl)-5-piperidin-1-ylbenzamide] | 8.4 | 217 | 182 to 184 | 
17 | O=C(Nc1ccc(Oc2ccnc(NCCN3CCCCC3)n2)c2ccccc12)c1cc(F)cc(N2CCCCC2)c1 [Compound B390, 3-Fluoro-5-piperidin-1-yl-N-[4-({2-[(2-piperidin-1-ylethyl)amino]pyrimidin-4-yl}oxy)-1-naphthyl]benzamide] | 3 | 115 | 88 to 89 | 
18 | O=C(Nc1ccc(Oc2ccnc(-n3ccnc3)n2)c2ccccc12)c1cc(F)cc(N2CCCCC2)c1 [Compound B379] | 15.1 | 530 | 175 to 176 | 
19 | O=C(Nc1ccc(Oc2ccnc(N3CCC(O)CC3)n2)c2ccccc12)c1cc(F)cc(N2CCCCC2)c1 [Compound B387, 3-Fluoro-N-(4-{[2-(4-hydroxypiperidin-1-yl)pyrimidin-4-yl]oxy}-1-naphthyl)-5-piperidin-1-ylbenzamide] | 5.7 | 309 | 182 to 184 | 
20 | CN1CCCC1CCNc1nccc(Oc2ccc(NC(=O)c3cc(F)cc(N4CCCCC4)c3)c3ccccc23)n1 (stereo not shown) [Compound B394, 3-Fluoro-N-{4-[(2-{[2-(1-methylpyrrolidin-2-yl)ethyl]amino}pyrimidin-4-yl)oxy]-1-naphthyl}-5-piperidin-1-ylbenzamide] | 0.7 | 10.8 | 112 to 114 | 
21 | O=C(Nc1ccc(Oc2ccnc(NCC3CC3)n2)c2ccccc12)c1cc(F)cc(N2CCCCC2)c1 [Compound B384, N-[4-({2-[(cyclopropylmethyl)amino]pyrimidin-4-yl}oxy)-1-naphthyl]-3-fluoro-5-piperidin-1-ylbenzamide] | 6.3 | 90.3 | 117 to 119 | 
22 | CN1CCC(Nc2nccc(Oc3ccc(NC(=O)c4cc(F)cc(N5CCOCC5)c4)c4ccccc34)n2)CC1 [Compound B362, 3-Fluoro-N-[4-({2-[(1-methylpiperidin-4-yl)amino]pyrimidin-4-yl}oxy)-1-naphthyl]-5-morpholin-4-ylbenzamide] | 7.8 | 48.7 | 128 to 129 | 
23 | O=C(Nc1ccc(OCCN2CCOCC2)c2ccccc12)c1cccc(N2CCOCC2)c1 [Compound B169, 3-Morpholin-4-yl-N-[4-(2-morpholin-4-yl-ethoxy)-naphthalen-1-yl]-benzamide] | 2070 | 1330 | 90 to 92 | 77.5
24 | C[C@@H]1CN(c2nccc(Oc3ccc(NC(=O)c4cc(F)cc(N5CCOCC5)c4)c4ccccc34)n2)C[C@H](C)O1 [Compound B364, N-[4-({2-[(2R,6S)-2,6-Dimethylmorpholin-4-yl]pyrimidin-4-yl}oxy)-1-naphthyl]-3-fluoro-5-morpholin-4-ylbenzamide] | 27.3 | 412 | 118 to 120 | 
25 | Cc1ncsc1CCOc1ccc(NC(=O)c2cc(F)cc(N3CCCCC3)c2)c2ccccc12 [Compound B424, 3-Fluoro-N-{4-[2-(4-methyl-1,3-thiazol-5-yl)ethoxy]-1-naphthyl}-5-piperidin-1-ylbenzamide] | 39.9 | 2210 | 221 to 222 | 
26 | CC(C)CNc1nccc(Oc2ccc(NC(=O)c3cc(F)cc(N4CCOCC4)c3)c3ccccc23)n1 [Compound B318, 3-Fluoro-N-(4-{[2-(isobutylamino)pyrimidin-4-yl]oxy}-1-naphthyl)-5-morpholin-4-ylbenzamide] | 7.2 | 38.3 | 96 to 97 | 
27 | O=C(Nc1ccc(OCCCN2CCCC2=O)c2ccccc12)c1cc(F)cc(N2CCCCC2)c1 [Compound B182, 3-Fluoro-N-{4-[3-(2-oxopyrrolidin-1-yl)propoxy]-1-naphthyl}-5-piperidin-1-ylbenzamide] | 587 | > 10000 | 88 to 89 | 

— patent US7829560B2, “1,4-disubstituted naphthalenes as inhibitors of P38 MAP kinase” (Arqule, Inc., priority 2004, dated 2010)
